# In article PMC6832705, “Menthol Increases Bendiocarb Efficacy Through Activation of Octopamine Receptors and Protein Kinase A” (Molecules, 2019):
# Biological target: T1, acetylcholinesterase (AChE)
# T1 construct: gene ace1; native enzyme in collagenase-treated, dissociated terminal abdominal ganglia of males; not purified
# Experiment: modified Ellman assay, absorbance […] nm
# Type: biochemical, Periplaneta americana
# Details: acetylthiocholine (0.1 mM stock), 15 min pre-incubation with bendiocarb, pH 7.2, 30 °C, no menthol; covalent; read-out: ED50 (the source's name)
smiles,measurement,value
CNC(=O)Oc1cccc2c1OC(C)(C)O2 [bendiocarb],IC50,100 nM
